Measured values as given in US4968819A, “Process for the preparation of chromene derivatives” (Alkaloida Vegyeszeti Gyar, priority 1983, dated 1990).
“Also recorded” adds a separate entry of the source. Where two headings read alike, the source gives them in different places.

How the values were obtained:
[1] = test system: domestic fly (Musca domestica); test: Domestic fly test (larvae in treated nutrient medium); type: in vivo; details: 0.1% related to milk, 0.05% related to total nutrient medium
Procedure: The fly larvae are grown on a nutrient medium of the following composition: 2 ml of milk; 2 ml of water; 2 g of wheat bran; 0.1 ml of saturated alcoholic nipagin solution.
The nutrient medium is filled into cylindrical glass vials (30×100 mm) and 25 fly larvae are raised in each vial. The test compound is dissolved in milk; the end concentration (related to milk) amounts to 0.1% which corresponds to 0.05% (related to the total nutrient medium). The solution of the active ingredient is admixed with the nutrient medium whereupon […] of domestic fly larvae of the I. stage are placed into each vial and the vials are closed with a hard cotton-wool stopper. The nymphs emerging from the larvae are collected in each vial, counted and kept in a Petri dish (diameter 25 mm) until flies hatch from the nymphs. The hatched flies are counted.

mustard beetle = test: Mustard beetle test (sprayed mustard seedlings); type: in vivo; details: concentration 1%
Procedure: Two weeks' old mustard seedlings are sprayed with a solution of 0.1 g of the test compound, 0.5 ml of dimethyl sulfoxide, and 10 μl of 50 EC composition in 10 ml of water. After the spray is dried, 20 mustard larvae of the II. stage are placed on each plant. The sprayed plants are charged every second day. The evaluation is based on the number of the imagos hatching from the nymphs.

[2] = test system: cabbage butterfly (Pieris brassicae); test: Cabbage butterfly test (sprayed cabbage seedlings); type: in vivo; details: Pieris brassicae; 50 EC, 0.1%; read-out: Killing rate of larvae
Procedure: From the 50 EC of the test compound a diluted series is prepared with water and the host seedlings (cabbage) are sprayed with this composition until the spray runs down. The spray is allowed to dry whereupon 20 young larvae of the II. stage are placed on each treated plant and the seedlings are kept under so-called "long-day" illumination (18 hours of illumination and 6 hours of darkness). The nibbled plants are replaced by similarly sprayed plants if necessary. The killing rate of the insects, the growth rate of the larvae and the morphological deformations of the surviving nymphs and adults are registered.
In the 50 EC compositions the concentration of compounds 23 and 25 amounts to 0.01% and that of the other compounds to 0.1%.

[3] = test system: tomato root gall nematode (Meloidogyne incognita); test: Tomato root gall nematode test (II. stage infective larvae, treated NGM agar plate); type: in vivo; details: 72 hours; for mortality at 200 µg/mL / mortality at 400 µg/mL: Meloidogyne incognita
Procedure: (6) Root gall nematode The test is carried out on II. stage infective larvae, which are collected from the root of tomato plant, placed on a filter and incubated in sterile water at 25° C. The hatched larvae are collected every 24 hours and immediately placed onto the treated nutrient medium. As nutrient medium NGM agar plate free from bacterial is used. 0.5 ml of the acetoneous solution of the test compound is applied onto the surface of the plate in a Petri-dish. After the acetone has evaporated 5 μl of the larva suspension is applied onto each plate. After 72 hours the surviving and killed insects are counted.

insects = details: compared with P2; listed as P3; cited from earlier work
[4] = test system: cotton bug (Dysdercus fasciatus); test: Cotton bug test (topical application on II. stage larvae); type: in vivo; details: for AJH effect: adultoid symptoms
Procedure: (1) Cotton bug test A dilution series is prepared from the test compound with acetone and 0.2 μl of each dilution is topically applied onto the back part of larvae of the II. stage of growth with the aid of a Hamiltion syringe. The active ingredient is absorbed through the cuticula. The animals are kept in a large glass and fed with cotton grains and water. After adult shedding the surviving insects are observed for eventual adultoid symptoms, the egg-reproduction and the development of the ovules is evaluated too. (Remark: in the cotton bug test 50 insects are used).

Caenorhabditis elegans = Caenorhabditis elegans test (treated NGM agar plate, young adults); type: in vivo
Procedure: (5) Caenorhabditis elegans 0.5 ml of the acetonous solution of the test compound is applied onto a NGM agar plate free from bacteria in a Petri dish. After the acetone has dried 25-30 young adults are placed on the plate. After 24 hours the surviving and killed insects are counted.

[5] = pK by potentiometrical titration; type: physicochemical; details: 7-OH
Description: (§1) This difference can be strengthened by deliberate direction of the reaction conditions to such an extent that selective mono-O-substitution can be carried out with excellent yields. It has been confirmed by various measurements and calculations (PMR, CMR, UV-VLS spectrophotometrical and potentiometric acid-base titrations, pK determinations, "all valence" CNDO quantumchemical calculations. electrostatical potential map calculation) that the hydroxy group in position 7 is the most reactive while the hydroxy groups in positions 5, 6 and 8, respectively, are less reactive.
(1.) is determined by potentiometrical titration and […]

[6] = pK by spectrophotometrical measurement; type: physicochemical; details: for pK7 (2.): 7-OH; for pKX (2.): second OH, X = 5, 6 or 8
Description: as §1
(2.) according to spectrophotometrical measurement).

[7] = 200 μg/ml, first test, read-out: mortality 1.
[8] = 200 μg/ml, second test, read-out: mortality 2.
[9] = 200 μg/ml, read-out: mortality Average
[10] = 400 μg/ml, first test, read-out: mortality 1.
[11] = 400 μg/ml, second test, read-out: mortality 2.
[12] = 400 μg/ml, read-out: mortality Average

## CCCOc1ccc2c(c1OC)OC(C)(C)C=C2 [Compound 51]
[1]
  Survival adult: 0%
  Survival nymph: 12%
Mustard beetle
  Survival, adults: 45%
[2]
  pest or weed control at 0.1 %: 100%

## CCOc1cc2c(cc1OC)C=CC(C)(C)O2 [Compound 3, 6-methoxy-7-ethoxy-2,2-dimethyl-2H-chromene, reference compound]
[3]; 400 μg/ml
  Nematocidal effect: strong
[3]; [7]
  mortality at 200 µg/mL: 24%
[3]; [8]
  mortality at 200 µg/mL: 20%
[3]; [9]
  mortality at 200 µg/mL: 22%
[3]; [10]
  mortality at 400 µg/mL: 100%
[3]; [11]
  mortality at 400 µg/mL: 95%
[3]; [12]
  mortality at 400 µg/mL: 97%
insects
  effectiveness/activity relative to P2: ten times more active; also recorded: ten times more effective
[4]
  LD50: 0.5 μg/insect
  Sterilizing effect: 10 μg/insect
  AJH effect: 10 μg/insect
Caenorhabditis elegans; 200 μg/ml
  Size of descendant population: some descendants
Caenorhabditis elegans; 400 μg/ml
  Size of descendant population: no descendants

## CC1(C)CC(=O)c2c(O)cc(O)cc2O1 [5-OH 7-OH 4-OH, 5,7-dihydroxy-2,2-dimethyl-4-chromanone]
[5]
  pK7 (1.): 7.4
[6]
  pK7 (2.): 7.0
  pKX (2.): 11.6

## CC1(C)CC(=O)c2ccc(O)c(O)c2O1 [8-OH 7-OH 4-H, 7,8-dihydroxy-2,2-dimethyl-4-chromanone]
[5]
  pK7 (1.): 7.2
[6]
  pK7 (2.): 7.2
  pKX (2.): 11.6

## COc1cc2c(cc1OC)OC(C)(C)C=C2 [Compound 1, 6,7-dimethoxy-2,2-dimethyl-2H-chromene, reference compound]
[3]; 200 μg/ml
  Nematocidal effect: strong
[3]; 400 μg/ml
  Nematocidal effect: strong
[3]; [7]
  mortality at 200 µg/mL: 76%
[3]; [8]
  mortality at 200 µg/mL: 76%
[3]; [9]
  mortality at 200 µg/mL: 76%
[3]; [10]
  mortality at 400 µg/mL: 98%
[3]; [11]
  mortality at 400 µg/mL: 95%
[3]; [12]
  mortality at 400 µg/mL: 97%
[4]
  LD50: 0.6 μg/insect
  Sterilizing effect: 10 μg/insect
  AJH effect: 1 μg/insect
Caenorhabditis elegans; 200 μg/ml
  Size of descendant population: no descendants
Caenorhabditis elegans; 400 μg/ml
  Size of descendant population: no descendants

## Cc1cc(OCC(C)C)cc2c1C=CC(C)(C)O2 [Compound 42]
[1]
  Survival adult: 25.5%
  Survival nymph: 45.4%
Mustard beetle
  Survival, adults: 27%
[2]
  pest or weed control at 0.1 %: 100%

## CC1(C)CC(=O)c2cc(O)c(O)cc2O1 [6-OH 7-OH 4-H, 6,7-dihydroxy-2,2-dimethyl-4-chromanone]
[5]
  pK7 (1.): 6.8
[6]
  pK7 (2.): 6.9
  pKX (2.): 11.4
